Assay results: paper PMC8707861 (Tomography, 2021)
Read-outs that look alike come from different tables or passages of the source.

Columns and labels:
[1] = Stability by incubation in 10 mM cysteine solution (HPLC); assay type: physicochemical
Protocol: (§1) After different time intervals the content of the solutions was tested by HPLC method.

[2] = Stability by incubation in 10 mM histidine solution (HPLC); assay type: physicochemical
Protocol: as §1

[3] = human serum, 37 °C
Protocol: In the case of stability studies in human serum (HS), the solution of isolated radioconjugate in PBS (0.1 mL) was added to 0.9 mL of the human serum and incubated at 37 °C. After time periods up to 4 h, 0.2 mL of the incubated serum mixture were withdrawn, mixed in an Eppendorf tube with 0.5 mL ethanol and vigorously shaken to precipitate proteins. After centrifuging (14,000 rpm for 5 min) the γ-radiation of both the supernatant and precipitate was measured using the well-type NaI(Tl) detector. To check whether the radioconjugate had not converted into other water-soluble radioactive species, aliquots of the supernatant were analysed by HPLC.

[4] = Paper electrophoresis analysis (charge of the molecule); assay type: physicochemical; details: 0.01 M phosphate buffer pH 7.40, 200 V, 45 min
Protocol: Paper electrophoresis experiments were achieved on 20 × 1 cm chromatographic paper strips, Paper Chromedia GF 83 (Whatman), in the phosphate buffer (0.01 M, pH 7.40), using the midi horizontal electrophoresis unit (Sigma-Aldrich) device. For both radioconjugates, the experiments were carried out at 200 V (10 V cm^−1) for 45 min and then the distribution of radioactivity on the strips was determined using a Storage Phosphor System Cyclone Plus (Perkin-Elmer Life and Analytical Sciences, Downers Grove, IL, USA).

[5] = test system: P. aeruginosa ATCC 27,853; experiment: In vitro binding of radioconjugate to bacteria; assay type: cell-based; details: Pseudomonas aeruginosa, 37 °C
Protocol: (§2) Bacteria were cultured on Columbia Agar supplemented with 5% sheep blood (Graso Biotech, Starogard Gdański, Poland) at 37 °C in an aerobic atmosphere for 24 h. After incubation, a bacterial suspension with the turbidity 3 according to the McFarland standards (cell density approximately 9 × 10^8 CFU/mL) was prepared in PBS. […] The mixtures of bacteria and the radioconjugate were incubated in separated tubes for different time intervals at 37 °C without shaking. […] The supernatant was removed to a new tube, and the bacterial pellet was resuspended in 1 mL of PBS, then the sample was again centrifuged at 7000 rpm for 5 min. After second centrifugation, the supernatant was removed to a new tube and the bacterial pellet was again resuspended in 1 mL of PBS. The radioactivity measurement was performed for all three fractions, two supernatants, and a final bacterial pellet suspension. Experiments for each incubation time were triplicate.

S. aureus ATCC 25,923 = experiment: In vitro binding of radioconjugate to bacteria; assay type: cell-based; details: Staphylococcus aureus, 37 °C
Protocol: as §2

[6] = n-octanol/PBS pH 7.40, triplicate
Protocol: The lipophilicity of the radioconjugates was characterised by the determination of the logarithm of distribution coefficient, logD, in the n-octanol/PBS (pH 7.40) system, which mimics the physiological conditions (Product Properties Test Guidelines OPPTS 830.7550, 1996). The 1 mL PBS solution of a given radioconjugate previously isolated from reaction mixture was introduced to a test tube containing 1 mL of n-octanol and vortexed for 1 min. After that, the test tube was centrifuged for 5 min at 5800 rpm to ensure complete separation of the layers. The activity of each layer was measured, using a well-type NaI(Tl) detector. […] The logD measurements of all radioconjugates were performed in triplicate.

[7] = period of four half-lives of the radionuclide

With `O=C(O)C[N+]12CC[N+]34CC[N+]5(CC(=O)N6CCN(c7cc8c(cc7F)c(=O)c(C(=O)O)cn8C7CC7)CC6)CC[N+]6(CC1)CC(=O)[O][68Ga-3]2365[O]C(=O)C4` (centres unmarked) [[^68Ga]Ga-DOTA-CIP] the “% of intact radioconjugate after incubation in CYS” value ([1]; 10 mM CYS in PBS pH 7.4, 37 °C, after 4 h) was ~100%, the “Stability in CYS challenging solution (in words)” value [1, 7] was “completely stable” and the “% of intact radioconjugate after incubation in HIS” value ([2]; 10 mM HIS in PBS pH 7.4, 37 °C, after 4 h) was ~100%. The “Stability in HIS challenging solution (in words)” value [2, 7] was “completely stable”, the “% of intact radioconjugate after incubation in HS” value (“% of intact radioconjugate … in HS” below) ([3]; after 0.5 h) was ~100% and the “% of intact radioconjugate … in HS” value ([3]; after 1 h) was ~100%. For the same compound, the “% of intact radioconjugate … in HS” value ([3]; after 4 h) was ~100%, the “Stability in HS (in words)” value ([3]; for 68Ga period of four half-lives) was “completely stable” and the “Charge of the molecule by electrophoresis” value [4] was “Negative charge”. For the same compound, the “Radioconjugate Uptake” value ([5]; binding time 30 min) was 0.82 ± 0.16%, the “Radioconjugate Uptake” value ([5]; binding time 60 min) was 1.29 ± 0.27% and the “Radioconjugate Uptake” value (S. aureus ATCC 25,923; binding time 30 min) was 0.89 ± 0.11%. The “Radioconjugate Uptake” value (S. aureus ATCC 25,923; binding time 60 min) was 1.1 ± 0.15% and the logD [6] was −3.1 ± 0.1.
